Assay results reported in patent publication US8097626B2, “IL-8 receptor antagonists” (GlaxoSmithKline LLC, priority 2006, dated 2012).
Like-named read-outs stand apart in the source and are kept apart here.

Test system: GROα-induced expression of the integrin CD11b on neutrophils in human whole blood
Assay: CD11b human whole blood assay
Assay type: cell-based
Conditions: Neutrophil, 10 nM GROα
Procedure: The compounds indicated were tested for their ability to inhibit the GROα-induced expression of the integrin CD11b on neutrophils in human whole blood.
Blood was drawn (9 ml) using a butterfly line and a 10 ml syringe containing 0.2 ml of working Sodium Heparin. The blood was kept at 37° C. until placed on ice in step 5 below. Compound stock solutions were then diluted to 12 times the maximum final concentration, 120 uM. Half Log serial dilutions were then performed in vehicle. Ten microliters of the compound dilutions or vehicle were then added to the appropriate 12×75 polypropylene tubes. One hundred microliters of whole blood was added per tube and incubated for 10 minutes, in a 37° C. water bath with initial (gentle) agitation and again at 5 minutes. The GROα stock was diluted 1:166.66 in 0.1% BSA-DPBS to “12×” concentration of 120 nM and 10 ul of the GROα dilution or 01% BSA-DPBS was added to the appropriate tubes so that the final GROα concentration equaled 10 nM. The tubes were incubated for 10 min at 37° C. with gentle hand agitation and again at 5 minutes. Samples were then placed on ice and 250 ul of ice cold CellFix working dilution was added followed by a one minute incubation on ice. 1.5 ml Eppendorf tubes were readied during GROα incubation by adding the appropriate antibodies. Every tube received 10 ul of CD11b-FITC and 5 ul of CD16-PE, except for the isotype control which received 10 ul of IgG2a-FITC instead of CD11b. Addition of 50 ul of the fixed blood from each tube was added to the appropriate Eppendorf tube. Samples were allowed to then incubate for 20 min at 4° C. in the dark. Addition of the blood/antibody mixtures to 500 ul of cold DPBS were added to the appropriately labeled 12×75 polystyrene tube. The resulting mixture was kept on ice. LDS stock (10 ul) was added and the mixture was incubated for 10 min at 4° C. before flow analysis. Samples were kept in a darkened environment. The LDS addition was staggered as the samples were collected on the flow cytometer so that all samples were run ˜10-20 minutes post-LDS addition.
Medium flow rate was used for flow collection and FL3 threshold increased to eliminate red blood cells from analysis using the LDS signal. The color compensation was properly set using unlabeled samples and one-color samples to subtract LDS spill into PE and the PE spill into FITC and FITC into PE. For the BD LSR cytometer, LDS=FL3, PE=FL2, FITC=FL1. A minimum of 2000-3000 events that satisfy the granulocyte gate by SSC vs. FSC and were CD16 positive by the FL2 signal were collected.

[1] = activity threshold, read-out: IC50, inhibition of GROα-induced CD11b expression on neutrophils
[2] = from about 3 uM to about 0.7 uM, read-out: IC50, inhibition of GROα-induced CD11b expression on neutrophils (span of the tested compounds)

| Compound | IC50 [1] | IC50 [2] |
| --- | --- | --- |
| O=C(Nc1ccc(Cl)c(S(=O)(=O)N2C[C@@H]3C[C@H]2CN3CC2CC2)c1O)Nc1cccc(F)c1Cl [Example 2, N-(4-chloro-3-{[(1S,4S)-5-(cyclopropylmethyl)-2,5-diazabicyclo[2.2.1]hept-2-yl]sulfonyl}-2-hydroxyphenyl)-N′-(2-chloro-3-fluorophenyl)urea] | < 5 µM | 0.7 to 3 µM |
| O=C1C[C@H]2CC[C@@H](C1)N2S(=O)(=O)c1c(Cl)ccc(NC(=O)Nc2cccc3c2OC(F)(F)O3)c1O [Example 26, N-(4-chloro-2-hydroxy-3-{[(1R,5S)-3-oxo-8-azabicyclo[3.2.1]oct-8-yl]sulfonyl}phenyl)-N′-(2,2-difluoro-1,3-benzodioxol-4-yl)urea] | < 5 µM | 0.7 to 3 µM |
| O=C(Nc1ccccc1Oc1ccccc1)Nc1ccc(Cl)c(S(=O)(=O)N2C[C@H]3CC[C@@H](C2)N3)c1O [Example 18, N-[4-chloro-3-(3,8-diazabicyclo[3.2.1]oct-3-ylsulfonyl)-2-hydroxyphenyl]-N′-[2-(phenyloxy)phenyl]urea] | < 5 µM | 0.7 to 3 µM |
| Cc1c(F)cccc1NC(=O)Nc1ccc(Cl)c(S(=O)(=O)N2C[C@H]3CC[C@@H](C2)N3)c1O [Example 17, N-[4-chloro-3-(3,8-diazabicyclo[3.2.1]oct-3-ylsulfonyl)-2-hydroxyphenyl]-N′-(3-fluoro-2-methylphenyl)urea] | < 5 µM | 0.7 to 3 µM |
| O=C(Nc1ccc(Cl)c(S(=O)(=O)N2C3CC[C@H]2CNC3)c1O)Nc1cccc(F)c1Cl (stereo in doubt) [Example 45, N-{4-chloro-3-[(1S,5S)-3,8-diazabicyclo[3.2.1]oct-8-ylsulfonyl]-2-hydroxyphenyl}-N′-(2-chloro-3-fluorophenyl)urea] | < 5 µM | 0.7 to 3 µM |

The remaining lines, values ahead:

| IC50 [1] | IC50 [2] | Compound |
| --- | --- | --- |
| < 5 µM | 0.7 to 3 µM | O=C(Nc1ccc(Cl)c(S(=O)(=O)N2C[C@@H]3C[C@H]2CN3)c1O)Nc1cccc(F)c1Cl [Example 1, N-[4-chloro-3-[(1S,4S)-2,5-diazabicyclo[2.2.1]hept-2-ylsulfonyl]-2-hydroxyphenyl]-N′-(2-chloro-3-fluorophenyl)urea] |
| < 5 µM | 0.7 to 3 µM | O=C(Nc1ccc(Cl)c(S(=O)(=O)N2CC3CC2CN3)c1O)Nc1cccc(F)c1Cl (racemic) [Example 23, (+/−)-N-[4-chloro-3-(2,5-diazabicyclo[2.2.1]hept-2-ylsulfonyl)-2-hydroxyphenyl]-N′-(2-chloro-3-fluorophenyl)urea] |
| < 5 µM | 0.7 to 3 µM | O=C(Nc1cccnc1Cl)Nc1ccc(Cl)c(S(=O)(=O)N2CCn3ccnc3C2)c1O [Example 3, N-[4-chloro-3-(5,6-dihydroimidazo[1,2-a]pyrazin-7(8H)-ylsulfonyl)-2-hydroxyphenyl]-N′-(2-chloro-3-pyridinyl)urea] |
| < 5 µM | 0.7 to 3 µM | CCc1ccccc1NC(=O)Nc1ccc(Cl)c(S(=O)(=O)N2C[C@H]3C[C@@H]2CN3)c1O (stereo in doubt) [Example 12, N-{4-chloro-3-[(1R,4R)-2,5-diazabicyclo[2.2.1]hept-2-ylsulfonyl]-2-hydroxyphenyl}-N′-(2-ethylphenyl)urea] |
